# Laboratory results as given in PubChem BioAssay AID328 (DTP/NCI, 2004).
# Where “and” joins values, the source holds several entries; their conditions need not be identical. Equal entries are not always repeated. Toxic doses and inconclusive results are not listed.
# Test system: BDF1 mice, P388 leukemia ip, median survival T/C
# Test: NCI In Vivo Anticancer Drug Screen. Data for tumor model P388 Leukemia (intraperitoneal) in B6D2F1 (BDF1) mice
# Details: endpoint: median survival time, higher = longer survival
# How it was run: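 Survival ratio, drug arm over vehicle arm, in mice with a transplanted tumour.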
# [1] = dose: 100.0 mg/kg/injection, schedule: Q04DX003 (ip), vehicle: saline with Tween-80
# [2] = dose: 200.0 mg/kg/injection, schedule: Q01DX009 (ip), vehicle: saline with Tween-80
# [3] = dose: 200.0 mg/kg/injection, schedule: Q04DX003 (ip), vehicle: saline with Tween-80
# [4] = dose: 300.0 mg/kg/injection, schedule: Q01DX009 (ip), vehicle: saline with Tween-80
# [5] = dose: 400.0 mg/kg/injection, schedule: Q01DX009 (ip), vehicle: saline with Tween-80
# [6] = dose: 400.0 mg/kg/injection, schedule: Q04DX003 (ip), vehicle: saline with Tween-80
# [7] = dose: 100.0 mg/kg/injection, schedule: Q04DX003 (ip), vehicle: saline
# [8] = dose: 200.0 mg/kg/injection, schedule: Q04DX003 (ip), vehicle: saline
# [9] = dose: 50.0 mg/kg/injection, schedule: Q04DX003 (ip), vehicle: saline with Tween-80
# [10] = dose: 50.0 mg/kg/injection, schedule: Q01DX009 (ip), vehicle: saline with Tween-80
# [11] = dose: 100.0 mg/kg/injection, schedule: Q01DX009 (ip), vehicle: saline with Tween-80
smiles,measurement,setting,value
OCC1CN(c2ccccc2)N=N1 (stereo not drawn),T/C,"dose: 50.0 mg/kg/injection, schedule: Q04DX002 (ip), vehicle: saline + alcohol",107 % of control
same,T/C,"dose: 100.0 mg/kg/injection, schedule: Q04DX002 (ip), vehicle: saline + alcohol",107 % of control
same,T/C,"dose: 200.0 mg/kg/injection, schedule: Q04DX002 (ip), vehicle: saline + alcohol",116 % of control
CCC[CH2][Sn]1([CH2]CCC)[O]OC(c2ccc(C)cc2)[O]1 (stereo not drawn),T/C,"dose: 0.38 mg/kg/injection, schedule: Q01DX009 (ip), vehicle: saline with Tween-80",114 % of control
same,T/C,"dose: 1.5 mg/kg/injection, schedule: Q01DX009 (ip), vehicle: saline with Tween-80",117 % of control
same,T/C,"dose: 3.13 mg/kg/injection, schedule: Q01DX009 (ip), vehicle: saline with Tween-80",123 % of control
same,T/C,"dose: 5.3 mg/kg/injection, schedule: Q01DX009 (ip), vehicle: saline with Tween-80",86 % of control
COc1ccc(Cc2cc3cc(OC)c(OC)cc3cn2)cc1OC,T/C,[1],110 % of control
same,T/C,[2],103 % of control
same,T/C,[3],112 % of control
same,T/C,[4],114 % of control
same,T/C,[5],103 % of control
same,T/C,[6],116 % of control
same,T/C,"dose: 500.0 mg/kg/injection, schedule: Q01DX009 (ip), vehicle: saline with Tween-80",103 % of control
CCNC(=S)N/N=C\C=N/NC(=S)NCC,T/C,"dose: 75.0 mg/kg/injection, schedule: Q01DX009 (ip), vehicle: saline with Tween-80",90 % of control
same,T/C,[4],91 % of control
O=c1[nH]c2nc(Cl)c(Cl)nc2[nH]1,T/C,"dose: 50.0 mg/kg/injection, schedule: Q04DX003 (ip), vehicle: saline",113 % of control
same,T/C,[7],106 % of control
same,T/C,[8],111 % of control
Cc1nnc2ncnn2c1N(C)c1ccccc1,T/C,[9],100 % of control
same,T/C,[1],95 % of control
same,T/C,[3],100 % of control
C[C@@H]1C[C@@]2(C)[C@@H](CC[C@@H]3[C@@H]2CC[C@]2(C)[C@@H](O)CC[C@@H]32)CC1=O,T/C,"dose: 6.25 mg/kg/injection, schedule: Q01DX009 (ip), vehicle: Klucel (hydroxypropylcellulose) (HPC)",109 % of control
same,T/C,"dose: 12.5 mg/kg/injection, schedule: Q01DX009 (ip), vehicle: Klucel (hydroxypropylcellulose) (HPC)",109 % of control
same,T/C,"dose: 25.0 mg/kg/injection, schedule: Q01DX009 (ip), vehicle: Klucel (hydroxypropylcellulose) (HPC)",109 % of control
O/C(=C\C(=S)S)c1ccc(Cl)cc1,T/C,"dose: 0.39 mg/kg/injection, schedule: Q04DX003 (ip), vehicle: saline with Tween-80",100 % of control
same,T/C,"dose: 0.78 mg/kg/injection, schedule: Q01DX009 (ip), vehicle: saline with Tween-80",97 % of control
same,T/C,"dose: 0.78 mg/kg/injection, schedule: Q04DX003 (ip), vehicle: saline with Tween-80",92 % of control and 106 % of control (2×)
same,T/C,"dose: 1.56 mg/kg/injection, schedule: Q01DX009 (ip), vehicle: saline with Tween-80",118 % of control
same,T/C,"dose: 1.56 mg/kg/injection, schedule: Q04DX003 (ip), vehicle: saline with Tween-80",97 % of control and 113 % of control
same,T/C,"dose: 3.12 mg/kg/injection, schedule: Q01DX009 (ip), vehicle: saline with Tween-80",106 % of control
same,T/C,"dose: 3.12 mg/kg/injection, schedule: Q04DX003 (ip), vehicle: saline with Tween-80",95 % of control and 100 % of control and 120 % of control
same,T/C,"dose: 6.25 mg/kg/injection, schedule: Q01DX009 (ip), vehicle: saline with Tween-80",112 % of control
same,T/C,"dose: 6.25 mg/kg/injection, schedule: Q04DX003 (ip), vehicle: saline with Tween-80",88 % of control and 103 % of control
same,T/C,"dose: 12.5 mg/kg/injection, schedule: Q01DX009 (ip), vehicle: saline with Tween-80",86 % of control
C=C(C)C(=O)Oc1ccc([N+](=O)[O-])cc1,T/C,[10],96 % of control
same,T/C,[11],113 % of control
same,T/C,[2],98 % of control
O=C(Nc1cccc(C2=NCCCN2)c1)Nc1ccc(NC(=O)Nc2cccc(C3=NCCCN3)c2)c(Cl)c1,T/C,"dose: 10.0 mg/kg/injection, schedule: Q01DX009 (ip), vehicle: saline with Tween-80",227 % of control
same,T/C,"dose: 11.0 mg/kg/injection, schedule: Q04DX003 (ip), vehicle: saline with Tween-80",182 % of control
same,T/C,"dose: 17.0 mg/kg/injection, schedule: Q04DX003 (ip), vehicle: saline with Tween-80",217 % of control
same,T/C,"dose: 20.0 mg/kg/injection, schedule: Q01DX009 (ip), vehicle: saline with Tween-80",204 % of control
same,T/C,"dose: 26.0 mg/kg/injection, schedule: Q04DX003 (ip), vehicle: saline with Tween-80",195 % of control and 209 % of control
same,T/C,"dose: 40.0 mg/kg/injection, schedule: Q04DX003 (ip), vehicle: saline with Tween-80",272 % of control
same,T/C,"dose: 60.0 mg/kg/injection, schedule: Q04DX003 (ip), vehicle: saline with Tween-80",272 % of control
CN1c2c(nc(N)[nH]c2=O)NCC1CCNc1ccc(C(=O)NC(CCC(=O)O)C(=O)O)cc1 (stereo not drawn),T/C,"dose: 6.25 mg/kg/injection, schedule: Q01DX009 (ip), vehicle: other",100 % of control
same,T/C,"dose: 12.5 mg/kg/injection, schedule: Q01DX009 (ip), vehicle: other",100 % of control
same,T/C,"dose: 25.0 mg/kg/injection, schedule: Q01DX009 (ip), vehicle: other",109 % of control
same,T/C,"dose: 50.0 mg/kg/injection, schedule: Q01DX009 (ip), vehicle: other",109 % of control
same,T/C,"dose: 50.0 mg/kg/injection, schedule: Q01DX009 (ip), vehicle: saline",104 % of control
same,T/C,"dose: 100.0 mg/kg/injection, schedule: Q01DX009 (ip), vehicle: saline",112 % of control
same,T/C,[7],109 % of control
same,T/C,"dose: 200.0 mg/kg/injection, schedule: Q01DX009 (ip), vehicle: other",118 % of control
same,T/C,"dose: 200.0 mg/kg/injection, schedule: Q01DX009 (ip), vehicle: saline",122 % of control
same,T/C,[8],109 % of control
same,T/C,"dose: 400.0 mg/kg/injection, schedule: Q04DX003 (ip), vehicle: saline",90 % of control
COC(=O)c1ccc(N)c(C(Sc2ccccc2)c2ccccc2)c1 (stereo not drawn),T/C,"dose: 50.0 mg/kg/injection, schedule: Q04DX002 (ip), vehicle: saline with Tween-80",98 % of control
same,T/C,"dose: 100.0 mg/kg/injection, schedule: Q04DX002 (ip), vehicle: saline with Tween-80",90 % of control
same,T/C,"dose: 200.0 mg/kg/injection, schedule: Q04DX002 (ip), vehicle: saline with Tween-80",99 % of control
CC(C)c1ccc(NC(=O)Nc2cccc3ccccc23)cc1,T/C,"dose: 50.0 mg/kg/injection, schedule: Q01DX001 (ip), vehicle: saline with Tween-80",95 % of control
same,T/C,"dose: 100.0 mg/kg/injection, schedule: Q01DX001 (ip), vehicle: saline with Tween-80",109 % of control
same,T/C,"dose: 200.0 mg/kg/injection, schedule: Q01DX001 (ip), vehicle: saline with Tween-80",100 % of control
O=S(=O)(C1=CCCCC1)C1=CCCCC1,T/C,"dose: 25.0 mg/kg/injection, schedule: Q04DX003 (ip), vehicle: saline with Tween-80",104 % of control
same,T/C,[9],99 % of control
same,T/C,[1],88 % of control and 100 % of control
FC(F)(Cl)c1nc2nc(Cl)c(Cl)nc2[nH]1,T/C,"dose: 266.0 mg/kg/injection, schedule: Q04DX003 (ip), vehicle: other",100 % of control
same,T/C,"dose: 400.0 mg/kg/injection, schedule: Q04DX003 (ip), vehicle: other",108 % of control
same,T/C,"dose: 600.0 mg/kg/injection, schedule: Q04DX003 (ip), vehicle: other",108 % of control
CC(=O)N1C2=CCCC3CCCCC23c2ccccc21 (stereo not drawn),T/C,[10],88 % of control and 109 % of control
same,T/C,[11],102 % of control and 104 % of control
same,T/C,[2],93 % of control
same,T/C,[5],112 % of control
Cc1c2oc3c(C)ccc(C(=O)NCc4cccnc4)c3nc-2c(C(=O)NCc2cccnc2)c(N)c1=O,T/C,[1],96 % of control
same,T/C,[3],96 % of control
same,T/C,[6],100 % of control
NC(=O)C(N)=O,T/C,"dose: 100.0 mg/kg/injection, schedule: Q01DX009 (ip), vehicle: Klucel (hydroxypropylcellulose) (HPC)",103 % of control
same,T/C,"dose: 200.0 mg/kg/injection, schedule: Q01DX009 (ip), vehicle: Klucel (hydroxypropylcellulose) (HPC)",93 % of control
same,T/C,"dose: 400.0 mg/kg/injection, schedule: Q01DX009 (ip), vehicle: Klucel (hydroxypropylcellulose) (HPC)",109 % of control
OCC1CSC(c2ccccc2)N1 (stereo not drawn),T/C,[10],86 % of control
same,T/C,[11],115 % of control
same,T/C,[2],103 % of control
O=P(N1CC1)(N1CC1)N1CC2CCC(CC2)C1,T/C,"dose: 25.0 mg/kg/injection, schedule: Q04DX003 (ip), vehicle: saline",163 % of control
same,T/C,"dose: 37.5 mg/kg/injection, schedule: Q04DX003 (ip), vehicle: saline",236 % of control
